Here are results for 25 molecules from patent publication US4788206A, “Pentadieneamides” (Hoffmann-La Roche Inc., priority 1987, dated 1988).

The target in test [1] is T1, PAF Binding, dog platelets (Canis lupus familiaris, UniProt A0A8I3NSH0).
T1 construct: Washed platelets were prepared by resuspending the platelet pellet once with PBS containing 1 mM EDTA; from tissue; host or cells: washed platelets from dog blood
T1 sequence (A0A8I3NSH0 1-343): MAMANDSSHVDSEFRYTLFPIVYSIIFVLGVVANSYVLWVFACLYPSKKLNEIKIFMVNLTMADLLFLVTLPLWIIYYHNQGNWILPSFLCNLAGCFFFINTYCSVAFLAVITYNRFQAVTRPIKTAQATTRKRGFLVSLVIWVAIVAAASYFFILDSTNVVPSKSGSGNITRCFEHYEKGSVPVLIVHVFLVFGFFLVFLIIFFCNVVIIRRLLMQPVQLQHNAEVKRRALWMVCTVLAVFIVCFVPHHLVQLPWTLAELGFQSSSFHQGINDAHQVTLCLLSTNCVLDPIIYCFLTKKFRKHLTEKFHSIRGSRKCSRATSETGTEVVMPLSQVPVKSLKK
As to the kind of experiment: PAF Binding Assay (inhibition of 3H-PAF binding to washed dog platelets). As to conditions: dog platelets, 3H-PAF, 10 minutes at room temperature; read-out: Inhib of PAF Binding IC50. The protocol: The binding assay was done in 400 μl polyethylene microcentrifuge tubes (Beckman) containing 50 μl of an oil mixture of 2 parts Siliconol AR200 (Serva): 1 part Silicone Fluid (Arthur H. Thomas). Buffer, standards, or analogs (150 μl total volume) were added to the tubes. Radiolabelled ^3 H-PAF (50 μl) was then added to the tubes. The reaction was started by the addition of 50 μl of dog platelets (2×10^7 platelets). The tubes were capped, inverted several times to mix, and incubated for 10 minutes at room temperature. The platelets were separated from the incubation mixture by centrifuging 1 minute in a Beckman Microfuge B centrifuge. The tip of the microfuge tube was cut off, and the platelets were washed out of the tip with 200 μl of 50% methanol (Burdick and Jackson). Aquasol (NEN, 10 ml) was added and the radioactivity in the samples was determined using an LS 8100 Beckman liquid scintillation counter linked to a Techtran tape recorder. Data was processed through an in-house computer system. Alternatively, radioactivity was determined using a Searle Mark III liquid scintillation counter linked to a Iso-Data microprocessor.
(b) Preparation of Platelets
Blood was collected from anesthesized or unanesthesized dogs into 50 ml plastic centrifuge tubes containing 3.8% sodium citrate as the anticoagulant (1 volume of citrate/9 volumes of blood). The red cells were removed by centrifugation for 15 minutes at 600 rpm (100-125 g) at room temperature. An aliquot of the supernatant platelet rich plasma (PRP) was saved for cell counting and the remainder was acidified to PH 6.5 with 0.15M citric acid. The platelet pellet was obtained after a 10 minute centrifugation at 2000 rpm (1000 g) at room temperature. Washed platelets were prepared by resuspending the platelet pellet once with PBS containing 1 mM EDTA, centrifuging as noted, and then resuspending the platelets in 0.1% BSA-PBS. An aliquot of the washed platelets was counted. Platelets used for binding assays were diluted to 2×10^7 platelets/assay tube (4×10^8 platelets/ml). Platelet counting was done using a Royco Cell-Crit 921.

In test [2] the test system is PAF-Induced Bronchoconstriction. The test is described as follows: PAF Induced Bronchoconstriction Assay. The class given is in vivo, guinea pig. The conditions noted are these: for Percent Inhib. of PAF-Induced Bronchoconstriction, mg/Kg i.v.: i.v. (dose not given), 1 minute pretreatment, PAF 1.0 μg/kg i.v.; for inhibition in vivo at 50 mg/kg: Cavia porcellus, po, 2-hour pretreatment, read-out: Percent Inhib. of PAF-Induced Bronchoconstriction, 50 mg/Kg p.o.; for inhibition in vivo at 50 mg/kg / Percent Inhib. of PAF-Induced Bronchoconstriction, 50 mg/Kg p.o. (8 hr): 50 mg/Kg p.o. The protocol:
PAF Induced Bronchoconstriction Assay
Male animals (Hartlet Strain 400-500 g) were anesthetized with urethane (2 g/kg. i.p.). Each animals' trachea was cannulated and the guinea pigs were repirated using a Harvard small animal rodent respirator (3.0 cc stroke volume, 40 breaths per min.). Tracheal pressure was recorded from a cannula inserted in the trachea and connected to a Statham Pressure Transducer.
The jugular vein was cannulated for administering compounds. Spontaneous breathing was arrested with succinylcholine (1.2 mg/kg. i.v.) administered 2 minutes prior to intravenous injection of platelet activating factor (PAF).
For, the intravenous testing, the guinea pig is given a 5-minute pretreatment with propranolol at a dose of 0.1 mg/kg intravenously. The test compound is administered with a 1 minute pretreatment prior to intravenous challenge with PAF. The animal is than challenged with a 1.0 μg/kg intravenous dose of PAF and the change is tracheal pressure is measured.
For the oral testing, the procedure includes a 2-hour pretreatment period with the test compound administered through an oral gavage tube. Propranolol or succinylcholine and PAF are administered intravenously, and the change in tracheal pressure measured.
The change is tracheal pressure is determined by subtracting the steady state baseline achieved after administration of succinylcholine from the peak bronchoconstriction seen after challenge with PAF. The mean is calculated for each test compound and compared to the mean of the control animals to give the percent inhibition of bronchoconstriction. The standard error is calcuated as the standard error of the mean.

The term IC50 denotes the concentration that gives 50% inhibition. Take `COc1ccc(C(=C/C=C/C(=O)NCCOCc2cccnc2)c2ccc(OC)cc2)cc1`: the IC50 in test [1] was found to be 25 nM. Also, in test [2], the “Percent Inhib. of PAF-Induced Bronchoconstriction, mg/Kg i.v.” value stood at 48 ± 7%.

Consider `CC(CCCc1cccnc1)NC(=O)/C=C/C=C(c1ccccc1)c1ccccc1` (racemic) [[R,S-(E)]-5,5-Diphenyl-N-[1-methyl-4-(3-pyridinyl)butyl]-2,4-pentadienamide], for which the IC50 in test [1] came out at 100 nM. Consider `COc1ccc(C(=C/C=C/C(=O)NC(CCCc2cccnc2)C(C)C)c2ccc(OC)cc2)cc1` (racemic) [[R,S-(E)]-5,5-bis(4-methoxyphenyl)-N-[1-(1-methylethyl)-4-(3-pyridinyl)butyl]-2,4-pentadienamide], for which, in test [2], the inhibition in vivo at 50 mg/kg is 57 ± 19% and the “Percent Inhib. of PAF-Induced Bronchoconstriction, mg/Kg i.v.” value came out at 87 ± 7%. Regarding `COc1ccc(C(=C/C=C/C(=O)NC(C)CCCc2cccnc2C)c2ccc(OC)cc2)cc1` (racemic) [[R,S-(E)]-5,5-bis(4-methoxyphenyl)-N-[1-methyl-4-(2-methyl-3-pyridinyl)butyl]-2,4-pentadienamide], the 50% inhibitory concentration (IC50) in test [1] was 30 nM. Besides, the “Percent Inhib. of PAF-Induced Bronchoconstriction, mg/Kg i.v.” value in test [2] was found to be 47 ± 10%.

As for `COc1ccc(C(=C/C=C/C(=O)NC(C)CCCc2ccc(C)nc2)c2ccc(OC)cc2)cc1` (racemic) [[R,S-(E)]-5,5-bis(4-methoxyphenyl)-N-[1-methyl-4-(6-methyl-3-pyridinyl)butyl]-2,4-pentadienamide], the IC50 in test [1] is 700 nM. On the same count and under the same terms, the value for `CCc1ccc(CCCC(C)NC(=O)/C=C/C=C(c2ccc(OC)cc2)c2ccc(OC)cc2)cn1` (racemic) [[R,S-(E)]-5,5-bis-(4-methoxyphenyl)-N-[1-methyl-4-(6-ethyl-3-pyridinyl)butyl]-2,4-pentadienamide] was 900 nM. On the same count and under the same terms, to `COc1cccc(C(=C/C=C/C(=O)NC(C)CCCc2cccnc2)c2cccc(OC)c2)c1` (racemic) [[R.S-(E)]-5,5-bis(3-methoxyphenyl)-N-[1-methyl-4-(3-pyridinyl)butyl]-2,4-pentadienamide] belongs 20 nM.

Turning to `C/C(=C\C=C(c1ccccc1)c1ccccc1)C(=O)NCCCCc1cccnc1` [(E)-5,5-Diphenyl-2-methyl-N-[4-(3-pyridinyl)butyl]-2,4-pentadienamide], in test [1], the IC50 worked out at 100 nM. With `CC(C)(CCCc1cccnc1)NC(=O)/C=C/C=C(c1cccc(F)c1)c1cccc(F)c1` [(E)-5,5-bis(3-Fluorophenyl)-N-[1,1-dimethyl-4-(3-pyridinyl)butyl]-2,4-pentadienamide], in test [2], the inhibition in vivo at 50 mg/kg came out at 11 ± 10%. Same read-out and setting: to `COc1cccc(C(=C/C=C/C(=O)NC(C)(C)CCCc2cccnc2)c2cccc(OC)c2)c1` [(E)-5,5-bis(3-Methoxyphenyl)-N-[1,1-dimethyl-4-(3-pyridinyl)butyl]-2,4-pentadienamide] belongs 22 ± 10%. Regarding `COc1cccc(C(=C/C=C/C(=O)NCCCCCCc2cccnc2)c2cccc(OC)c2)c1` [(E)-5,5-bis(3-Methoxyphenyl)-N-[6-(3-pyridinyl)hexyl]-2,4-pentadienamide], the IC50 in test [1] was found to be 450 nM.

As to `CC(C)(CCCc1cccnc1)NC(=O)/C=C/C=C(c1ccc(F)cc1)c1ccc(F)cc1` [(E)-5,5-bis(4-Fluorophenyl)-N-[1,1-dimethyl-4-(3-pyridinyl)butyl]-2,4-pentadienamide], the inhibition in vivo at 50 mg/kg in test [2] worked out at 20 ± 14%. Same read-out and setting: the value for `COc1ccc(C(=C/C=C/C(=O)NC(C)(C)CCCc2cccnc2)c2ccc(OC)cc2)cc1` [(E)-5,5-bis(4-Methoxyphenyl)-N-1,1-dimethyl-4-(3-pyridinyl)butyl]-2,4-pentadienamide] was 54 ± 9%. In the case of `COc1ccc(C(=C/C=C/C(=O)NCCCOc2cccnc2)c2ccc(OC)cc2)cc1` [(E)-5,5-bis(4-methoxyphenyl)-N-[3-[(3-pyridinyl)oxy]propyl]-2,4-pentadienamide], in test [1], the IC50 came out at 300 nM. On to `Cc1ccc(C(=C/C=C/C(=O)NCCCCc2cccnc2)c2ccc(C)cc2)cc1` [(E)-5,5-bis(4-methylphenyl)-N-[4-(3-pyridinyl)butyl]-2,4-pentadienamide], for which, in test [2], the “Percent Inhib. of PAF-Induced Bronchoconstriction, 50 mg/Kg p.o. (8 hr)” value worked out at 11 ± 6%; the inhibition in vivo at 50 mg/kg worked out at 67 ± 15%; the “Percent Inhib. of PAF-Induced Bronchoconstriction, mg/Kg i.v.” value came out at 95 ± 1%. Regarding `COc1ccc(C(=C/C=C/C(=O)Nc2cccc3cnccc23)c2ccc(OC)cc2)cc1` [(E)-N-(5-isoquinolinyl)-5,5-bis(4-methoxyphenyl)-2,4-pentadienamide], the IC50 in test [1] came to 600 nM. The same measure, in the same setting: to `COc1ccc(C(=C/C=C/C(=O)NCCCc2cccc3ccncc23)c2ccc(OC)cc2)cc1` [(E)-N-[3-(8-isoquinolinyl)propyl]-5,5-bis(4-methoxyphenyl)-2,4-pentadienamide] belongs over 1000 nM; to `COc1ccc(C(=C/C=C/C(=O)NCCCCc2cncc3ccccc23)c2ccc(OC)cc2)cc1` [(E)-N-[4-(4-isoquinolinyl)butyl]-5,5-bis(4-methoxyphenyl)-2,4-pentadienamide], over 1000 nM; to `O=C(/C=C\C=C(c1ccccc1)c1ccccc1)NCCCCc1cccnc1` [(Z)-5,5-diphenyl-N-[4-(3-pyridinyl)butyl]-2,4-pentadienamide], 400 nM. On to `CCCCC/C(=C/C=C/C(=O)N[C@H](C)CCCc1cccnc1)c1ccc(OC)cc1` [[R-(2E,4Z)]-5-(4-methoxyphenyl)-N-[1-methyl-4-(3-pyridinyl)butyl]-2,4-decadienamide], for which the “Percent Inhib. of PAF-Induced Bronchoconstriction, mg/Kg i.v.” value in test [2] stood at 57 ± 12%. For `COc1ccc(/C(=C\C=C\C(=O)N[C@H](C)CCCc2cccnc2)c2ccccc2)cc1` [[R-(2E,4Z)]-5-(4-methoxyphenyl)-N-[1-methyl-4-(3-pyridinyl)butyl]-5-phenyl-2,4-pentadienamide], in test [2], the inhibition in vivo at 50 mg/kg was found to be 0% and the “Percent Inhib. of PAF-Induced Bronchoconstriction, mg/Kg i.v.” value was found to be 74 ± 11%.

As to `COc1ccc(/C(=C\C=C\C(=O)N[C@H](C)CCCc2cccnc2)C2CCCCC2)cc1` [[R-(2E,4Z)]-5-cyclohexyl-5-(4-methoxyphenyl)-N-[1-methyl-4-(3-pyridinyl)butyl]-2,4-pentadienamide], the “Percent Inhib. of PAF-Induced Bronchoconstriction, mg/Kg i.v.” value in test [2] was 18 ± 12%. For `CCCCC/C(=C\C=C\C(=O)N[C@H](C)CCCc1cccnc1)c1ccc(OC)cc1` [[R-(E,E)]5-(4-methoxyphenyl)-N-[1-methyl-4-(3-pyridinyl)butyl]-2,4-decadienamide], in test [2], the “Percent Inhib. of PAF-Induced Bronchoconstriction, 50 mg/Kg p.o. (8 hr)” value stood at 71 ± 14%; the inhibition in vivo at 50 mg/kg came to 100 ± 0.5%; the “Percent Inhib. of PAF-Induced Bronchoconstriction, mg/Kg i.v.” value is 99 ± 1%.

Take `COc1ccc(/C(=C/C=C/C(=O)N[C@H](C)CCCc2cccnc2)c2ccccc2)cc1` [[R-(E,E)]-5-(4-methoxyphenyl)-N-[1-methyl-4-(3-pyridinyl)butyl]-5-phenyl-2,4-pentadienamide]: in test [2], the inhibition in vivo at 50 mg/kg worked out at 95 ± 1% and the “Percent Inhib. of PAF-Induced Bronchoconstriction, mg/Kg i.v.” value is recorded as 89 ± 4%. Regarding `C[C@@H](CCCc1cccnc1)NC(=O)/C=C/C=C(c1ccc(F)cc1)c1ccc(F)cc1` [[S-(E)]-5,5-bis(4-fluorophenyl)-N-[1-methyl-4-(3-pyridinyl)butyl]-2,4-pentadienamide], in test [2], the inhibition in vivo at 50 mg/kg came out at 44 ± 10%.
